This is an account of results in patent US5948791A, “Quinoline derivatives for treating malaria” (Hoffmann-La Roche Inc., priority 1995, dated 1999).

Test [1] relates to Plasmodium falciparum strain NF54. Briefly: Growth inhibition of Plasmodium falciparum NF54 (chloroquine-sensitive) in vitro, [G-3H]-hypoxanthin incorporation. The test is classed as cell-based. The conditions noted are these: chloroquine-sensitive strain NF54, 72 h, read-out: IC50 for P. falciparum NF54. Put shortly: (§1)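 Asynchronous intraerythrocytic cultures in human A+ erythrocytes (0.7% parasitemia, 2.5% suspension) in RPMI 1640 with HEPES, NaHCO3 and human serum, exposed to compound titrated over 6-7 steps for 72 h at 37° C, 3% O2. Growth by [G-3H]-hypoxanthin incorporation against untreated controls; IC50 by logit regression.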

Another test deals with Plasmodium falciparum K1. Description: Growth inhibition of Plasmodium falciparum K1 (chloroquine-resistant) in vitro, [G-3H]-hypoxanthin incorporation. The test is classed as cell-based, Plasmodium falciparum (strain K1). The conditions noted are these: for IC50: Plasmodium falciparum, K1, 72 h, read-out: IC50 for P. falciparum K1; for Resistance index: ratio of the IC50 for K1 and the IC50 for NF54. Put shortly: as §1

A further test relates to Plasmodium berghei. Description: animal or person. The test is classed as in vivo, Plasmodium berghei (strain ANKA) in mice. The conditions noted are these: Plasmodium berghei, mice, blood smears 48 h after treatment. Put shortly: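 Male albino mice (~25 g) infected i.v. on D0 with P. berghei ANKA (0.2 ml of 10^8 parasitized erythrocytes/ml); single s.c. and p.o. dose 24 h post-infection, 10 mg/kg screen then titration.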

Where [2] appears, read: po, single peroral dose of 10 mg/kg, read-out: Growth inhibition in % after po administration (GI%, percentage reduction of the parasitemia).
The mark [3] stands for this setting: sc, single subcutaneous dose of 10 mg/kg, read-out: Growth inhibition in % after sc administration (GI%, percentage reduction of the parasitemia).

In brackets after ≈: the same amount, converted by molar mass. Where a name gives a salt, the structure may show the parent alone. Read-outs that look alike come from different tables or passages of the source.

With `Cl.Cl.FC(F)(F)c1ccc(CN[C@H]2CCCC[C@@H]2Nc2ccnc3cc(Cl)ccc23)c(C(F)(F)F)c1` [Example 64, (1S,2S)-N1-(7-Chloro-quinolin-4-yl)-N2-(2,4-bis-trifluoromethyl-benzyl)-cyclohexane-1,2-diamine dihydrochloride], the results for the IC50 (in test [1]; in the test on Plasmodium falciparum K1) were 0.0357 µg/mL and 0.0823 µg/mL, respectively. Moreover, the Resistance index with Plasmodium falciparum K1 stood at 2.3. The inhibition in vivo at 10 mg/kg in the test with Plasmodium berghei (setting [2]) was 87%; in the test with Plasmodium berghei (setting [3]), 66%.
Consider `Clc1ccc2c(N[C@H]3CC[C@@H](NCCCc4ccccc4)CC3)ccnc2c1` [Example 20, cis-N1-(7-Chloro-quinolin-4-yl)-N4-(3-phenyl-propyl)-cyclohexane-1,4-diamine dihydrochloride], for which the IC50 (commonly the concentration at which inhibition is half-maximal) was determined as 0.0044 µg/mL in test [1] and 0.0108 µg/mL with Plasmodium falciparum K1. The Resistance index in the test on Plasmodium falciparum K1 is listed as 2.5. Moreover, the figures for the inhibition in vivo at 10 mg/kg in the test on Plasmodium berghei (setting [2]) and with Plasmodium berghei (setting [3]) were 94% and 98%, respectively.
On to `COc1ccc(CN[C@H]2CC[C@H](Nc3ccnc4cc(Cl)ccc34)CC2)cc1OC.Cl.Cl` [Example 110, trans-N1-(7-Chloro-quinolin-4-yl)-N4-(3,4-dimethoxy-benzyl)-cyclohexane-1,4-diamine dihydrochloride], for which the figures for the IC50 (in test [1]; with Plasmodium falciparum K1) were 0.0028 µg/mL and 0.0172 µg/mL, respectively. The Resistance index in the test on Plasmodium falciparum K1 was 6.1. Moreover, the figures for the inhibition in vivo at 10 mg/kg with Plasmodium berghei (setting [2]) and in the test with Plasmodium berghei (setting [3]) were 45% and 99.6%, respectively.
Take `Cl.Cl.Clc1ccc2c(N[C@H]3CC[C@H](NCCc4c(Cl)cccc4Cl)CC3)ccnc2c1` [Example 101, trans-N1-(7-Chloro-quinolin-4-yl)-N4-[2-(2,6-dichloro-phenyl)-ethyl]-cyclohexane-1,4-diamine dihydrochloride]: the figures for the IC50 (in test [1]; with Plasmodium falciparum K1) were 0.0027 µg/mL and 0.0029 µg/mL, respectively. In the test on Plasmodium falciparum K1, the Resistance index is reported as 1.1. Moreover, the inhibition in vivo at 10 mg/kg with Plasmodium berghei (setting [2]) stood at 72%; in the test with Plasmodium berghei (setting [3]), 84%.
Take `Cl.Cl.Clc1cccc(CN[C@H]2CC[C@H](Nc3ccnc4cc(Cl)ccc34)CC2)c1` [Example 107, trans-N1-(3-Chloro-benzyl)-N4-(7-chloro-quinolin-4-yl)-cyclohexane-1,4-diamine dihydrochloride]: the figures for the IC50 (in test [1]; in the test with Plasmodium falciparum K1) were 0.0014 µg/mL and 0.0034 µg/mL, respectively. Moreover, the Resistance index with Plasmodium falciparum K1 was 2.4. Besides, the inhibition in vivo at 10 mg/kg in the test on Plasmodium berghei (setting [2]) turned out to be 84%; in the test on Plasmodium berghei (setting [3]) it was 95%.
Regarding `Cl.Cl.Clc1ccc2c(N[C@H]3CC[C@@H](NCc4ccc(Cl)c(Cl)c4)CC3)ccnc2c1` [Example 74, cis-N1-(7-Chloro-quinolin-4-yl)-N4-(3,4-dichloro-benzyl)-cyclohexane-1,4-diamine dihydrochloride], the IC50 in test [1] is 0.0233 µg/mL; with Plasmodium falciparum K1, 0.0145 µg/mL. For the same compound, the Resistance index in the test with Plasmodium falciparum K1 worked out at 0.6. For the same compound, the inhibition in vivo at 10 mg/kg with Plasmodium berghei (setting [2]) came to 83%; in the test on Plasmodium berghei (setting [3]) it was 84%.
In the case of `CC(C)(CNc1ccnc2cc(Cl)ccc12)NCc1ccc(C#N)cc1.Cl.Cl` [Example 49, N1-(7-Chloro-quinolin-4-yl)-N2-(4-cyano-benzyl)-2-methyl-propane-1,2-diamine dihydrochloride], the IC50 in test [1] turned out to be 0.0082 µg/mL; in the test on Plasmodium falciparum K1 it was 0.0124 µg/mL. Moreover, the Resistance index in the test on Plasmodium falciparum K1 is on record as 1.5. Moreover, the inhibition in vivo at 10 mg/kg worked out at 88% in the test on Plasmodium berghei (setting [2]) and 87% with Plasmodium berghei (setting [3]).
Take `Cl.Cl.Clc1ccc2c(N[C@H]3CC[C@@H](NCc4c(Cl)cccc4Cl)CC3)ccnc2c1` [Example 15, cis-N1-(7-Chloro-quinolin-4-yl)-N4-(2,6-dichloro-benzyl)-cyclohexane-1,4-diamine dihydrochloride]: the IC50 in test [1] worked out at 0.0043 µg/mL; with Plasmodium falciparum K1, 0.0147 µg/mL. Moreover, the Resistance index in the test with Plasmodium falciparum K1 was found to be 3.4. Also, the inhibition in vivo at 10 mg/kg in the test on Plasmodium berghei (setting [3]) is 92%.
Consider `COc1cc(OC)c(CN[C@H]2CC[C@@H](Nc3ccnc4cc(Cl)ccc34)CC2)c(OC)c1.Cl.Cl` [Example 14, cis-N1-(7-Chloro-quinolin-4-yl)-N4-(2,4,6-trimethoxy-benzyl)-cyclohexane-1,4-diamine dihydrochloride], for which the figures for the IC50 (in test [1]; in the test with Plasmodium falciparum K1) were 0.0048 µg/mL and 0.0284 µg/mL, respectively. For the same compound, in the test on Plasmodium falciparum K1, the Resistance index turned out to be 5.9. The inhibition in vivo at 10 mg/kg with Plasmodium berghei (setting [2]) and with Plasmodium berghei (setting [3]) was 100% throughout.
Consider `CC(C)(CNc1ccnc2cc(Cl)ccc12)NCc1cccnc1.Cl.Cl.Cl` [Example 57, N1-(7-Chloro-quinolin-4-yl)-N2-(pyridin-3-yl-methyl)-2-methyl-propane-1,2-diamine trihydrochloride], for which the results for the IC50 (in test [1]; with Plasmodium falciparum K1) were 0.0217 µg/mL and 0.0282 µg/mL, respectively. Besides, in the test with Plasmodium falciparum K1, the Resistance index was 1.3. The results for the inhibition in vivo at 10 mg/kg in the test on Plasmodium berghei (setting [2]) and in the test on Plasmodium berghei (setting [3]) were 99.4% and 99.7%, respectively.
For the compound `Cl.Cl.Clc1ccc(CN[C@H]2CCCC[C@@H]2Nc2ccnc3cc(Cl)ccc23)c(Cl)c1` [Example 62, (1S,2S)-N1-(7-Chloro-quinolin-4-yl)-N2-(2,4-dichloro-benzyl)-cyclohexane-1,2-diamine dihydrochloride], the IC50 in test [1] was 0.0508 µg/mL; in the test on Plasmodium falciparum K1 it was 0.0642 µg/mL. Further, the Resistance index in the test with Plasmodium falciparum K1 is 1.3. The inhibition in vivo at 10 mg/kg in the test on Plasmodium berghei (setting [2]) and in the test on Plasmodium berghei (setting [3]) was 99.8% each time.
In the case of `CC(C)(CNc1ccnc2cc(Cl)ccc12)NCc1ccc(Cl)c(Cl)c1` [Example 3, N1-(7-Chloro-quinolin-4-yl)-N2-(3,4-dichloro-benzyl)-2-methyl-propane-1,2-diamine], the IC50 in test [1] worked out at 0.0137 µg/mL (≈ 0.0335 µM); in the test with Plasmodium falciparum K1 it was 0.0183 µg/mL (≈ 0.0448 µM). Further, in the test on Plasmodium falciparum K1, the Resistance index was determined as 1.3. Also, the inhibition in vivo at 10 mg/kg in the test with Plasmodium berghei (setting [2]) stood at 96%; in the test with Plasmodium berghei (setting [3]), 8%.
For `COc1ccc(CCN[C@H]2CC[C@H](Nc3ccnc4cc(Cl)ccc34)CC2)cc1.Cl.Cl` [Example 92, trans-N1-(7-Chloro-quinolin-4-yl)-N4-[2-(4-methoxy-phenyl)-ethyl]-cyclohexane-1,4-diamine dihydrochloride], in that order: 0.0022 µg/mL, 0.008 µg/mL, 3.6, 85% and 99.7%.
For the compound `CCN(CC)c1ccc(CN[C@H]2CC[C@@H](Nc3ccnc4cc(Cl)ccc34)CC2)cc1.Cl.Cl.Cl` [Example 85, cis-N1-(7-Chloro-quinolin-4-yl)-N4-(4-diethylamino-benzyl)-cyclohexane-1,4-diamine trihydrochloride], the IC50 was 0.0046 µg/mL in test [1] and 0.0039 µg/mL in the test with Plasmodium falciparum K1. Also, in the test on Plasmodium falciparum K1, the Resistance index came out at 0.8. For the same compound, the inhibition in vivo at 10 mg/kg stood at 99.9% in the test with Plasmodium berghei (setting [2]) and 100% with Plasmodium berghei (setting [3]).
For `Cl.Cl.Clc1ccc2c(N[C@H]3CC[C@H](NCc4ccc5c(c4)OCO5)CC3)ccnc2c1` [Example 103, trans-N1 -Benzo[1,3]dioxol-5-ylmethyl-N4-(7-chloro-quinolin-4-yl)-cyclohexane-1,4-diamine dihydrochloride], in that order: 0.0021 µg/mL, 0.0046 µg/mL, 2.2, 89% and 99.8%.
For `COc1ccc(CN[C@H]2CC[C@@H](Nc3ccnc4cc(Cl)ccc34)CC2)cc1.Cl.Cl` [Example 21, cis-N1-(7-Chloro-quinolin-4-yl)-N4-(4-methoxy-benzyl)-cyclohexane-1,4-diamine dihydrochloride], the IC50 came to 0.0051 µg/mL in test [1] and 0.0093 µg/mL in the test on Plasmodium falciparum K1. The Resistance index with Plasmodium falciparum K1 was determined as 1.8. In addition, the inhibition in vivo at 10 mg/kg with Plasmodium berghei (setting [2]) came to 99.9%; in the test with Plasmodium berghei (setting [3]), 100%.
Consider `Cl.Cl.Clc1ccc2c(N[C@H]3CC[C@@H](NCCc4ccccc4)CC3)ccnc2c1` [Example 13, cis-N1-(7-Chloro-quinolin-4-yl)-N4-phenethyl-cyclohexane-1,4-diamine dihydrochloride], for which the IC50 in test [1] is 0.0027 µg/mL; in the test on Plasmodium falciparum K1, 0.0161 µg/mL. Also, in the test on Plasmodium falciparum K1, the Resistance index worked out at 6.0. For the same compound, the inhibition in vivo at 10 mg/kg in the test with Plasmodium berghei (setting [2]) and in the test with Plasmodium berghei (setting [3]) was 99.9% in each case.
With `CC(C)(CNc1ccnc2cc(Cl)ccc12)NCc1ccc(Cl)cc1Cl` [Example 5, N1-(7-Chloro-quinolin-4-yl)-N2-(2,4-dichloro-benzyl)-2-methyl-propane-1,2-diamine], the IC50 was 0.0493 µg/mL (≈ 0.121 µM) in test [1] and 0.0572 µg/mL (≈ 0.14 µM) in the test on Plasmodium falciparum K1. Besides, the Resistance index in the test on Plasmodium falciparum K1 came to 1.2. The inhibition in vivo at 10 mg/kg in the test on Plasmodium berghei (setting [2]) amounted to 83%; in the test on Plasmodium berghei (setting [3]) it was 69%.
On to `CSc1ccc(CNC(C)(C)CNc2ccnc3cc(Cl)ccc23)cc1.Cl.Cl` [Example 44, N1-(7-Chloro-quinolin-4-yl)-N2-(4-methylsulphanyl-benzyl)-2-methyl-propane-1,2-diamine dihydrochloride], for which the IC50 in test [1] is 0.0108 µg/mL; in the test on Plasmodium falciparum K1, 0.0154 µg/mL. In addition, in the test with Plasmodium falciparum K1, the Resistance index was 1.4. Further, the inhibition in vivo at 10 mg/kg with Plasmodium berghei (setting [2]) stood at 98%; in the test on Plasmodium berghei (setting [3]), 99%.
